# Tests used:
# [1] = Inhibition against PP1 at 100 uM
# [2] = target: T1, Serine-threonine protein phosphatase 2A regulatory subunit (Gallus gallus) (UniProt Q8AWE3); test: Inhibition against PP2A at 100 uM
# T1 sequence (whole entry): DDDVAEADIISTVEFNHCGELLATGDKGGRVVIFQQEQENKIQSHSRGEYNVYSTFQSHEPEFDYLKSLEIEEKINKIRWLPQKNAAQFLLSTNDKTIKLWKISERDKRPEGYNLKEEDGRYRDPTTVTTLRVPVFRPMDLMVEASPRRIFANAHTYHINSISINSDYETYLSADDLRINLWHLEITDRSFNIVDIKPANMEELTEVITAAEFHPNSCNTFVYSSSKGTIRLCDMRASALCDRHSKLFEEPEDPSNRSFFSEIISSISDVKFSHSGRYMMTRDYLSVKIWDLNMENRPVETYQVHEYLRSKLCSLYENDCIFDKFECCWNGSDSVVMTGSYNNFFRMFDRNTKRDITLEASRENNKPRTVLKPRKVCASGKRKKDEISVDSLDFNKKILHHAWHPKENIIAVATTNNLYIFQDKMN
# [3] = target: T2, Serine-threonine protein phosphatase 2A regulatory subunit (Gallus gallus, UniProt Q8AWE3); test: Concentration required to inhibit the action of protein phosphatase 2A
# T2 sequence (Q8AWE3 whole entry): T1 sequence (whole entry)
# [4] = Inhibitory concentration against PP1 was determined
# [5] = Selectivity was calculated against protein phosphatase 1
# Homo sapiens = organism: Homo sapiens; test: Selectivity against Protein phosphatase 2A
# [6] = Selectivity was evaluated against Protein phosphatase 1
SMILES,inhibition [1],inhibition [2],IC50 [3],IC50 [4],Selectivity [5],Selectivity (Homo sapiens),Selectivity [6]
COC(=O)C1C(C(=O)OC)[C@H]2C=C[C@@H]1S2 (some centres not stated),3%,3%,,,,,
COC[C@@H]([C@H](O)[C@H](O)C(=O)NCC[C@H](C)c1nc(/C=C/C[C@@H]2O[C@]3(C[C@@H](O)[C@@H]2C)O[C@H]([C@H](C[C@H](O)[C@H](C)[C@H](O)[C@H](C)/C=C(C)/C(C)=C/C=C/C(C)=C\C#N)OC)[C@H](OP(=O)(O)O)C3(C)C)co1)N(C)C [CALYCULIN A],,,0.002 µM,,,,
O=C1OC(=O)C2C1[C@@H]1CC[C@H]2O1 (some centres not stated),90%,97%,,2.4 µM,,,
C[C@@]12C(=O)OC(=O)[C@]1(C)[C@H]1CC[C@@H]2O1 [CANTHARIDIN],,,,0.16 µM,,,
COC(=O)C1C(C(=O)OC)[C@H]2C=C[C@@H]1O2 (some centres not stated),46%,6%,> 2000 µM,50 µM,> 40,,
C[C@@](O)(/C=C/[C@H]1CC=CC(=O)O1)[C@@H](C[C@@H](O)\C=C/C=C\C=C\CO)OP(=O)(O)O [FOSTRIECIN SODIUM],,,0.0034 µM,130 µM,,> 40000,
O=C1NC(=O)C2C1[C@@H]1C=C[C@H]2S1 (some centres not stated),87%,30%,426 µM,12.5 µM,,,34
O=C1OC(=O)C2C1[C@@H]1C=C[C@H]2S1 (some centres not stated),0%,0%,,,,,
